The numbers were not newly measured in US7432394B2, “Resolution of α-(phenoxy) phenylacetic acid derivatives with naphthyl-alkylamines” (Metabolex, Inc., priority 2005, dated 2008), which cites them from elsewhere.

The structures appear in SMILES notation.

This data set deals with cytochrome P450 2C9 (Homo sapiens, UniProt P11712).
cytochrome P450 2C9, sequence (P11712 whole entry): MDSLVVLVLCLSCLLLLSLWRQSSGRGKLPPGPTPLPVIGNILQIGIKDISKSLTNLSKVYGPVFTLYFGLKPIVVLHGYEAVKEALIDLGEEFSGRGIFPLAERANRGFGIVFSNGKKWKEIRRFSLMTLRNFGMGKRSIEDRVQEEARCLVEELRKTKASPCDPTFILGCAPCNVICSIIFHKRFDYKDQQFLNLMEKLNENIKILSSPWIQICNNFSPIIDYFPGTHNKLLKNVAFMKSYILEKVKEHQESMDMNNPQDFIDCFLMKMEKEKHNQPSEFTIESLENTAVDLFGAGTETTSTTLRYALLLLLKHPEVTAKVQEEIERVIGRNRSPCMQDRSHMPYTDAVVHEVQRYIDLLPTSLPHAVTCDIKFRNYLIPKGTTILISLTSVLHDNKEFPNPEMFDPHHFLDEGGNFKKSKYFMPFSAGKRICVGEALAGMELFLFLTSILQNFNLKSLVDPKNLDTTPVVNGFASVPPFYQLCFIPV

Take `O=C(O)C(Oc1cccc(C(F)(F)F)c1)c1ccc(Cl)cc1` (racemic) [halofenic acid, (4-chlorophenyl)(3-trifluoromethylphenoxy)acetic acid]: the “inhibition of cytochrome P450 2C9” value (racemic acid, result in words) is reported as “inhibits cytochrome P450 2C9”. `O=C(O)C(Oc1cccc(C(F)(F)F)c1)c1ccc(Cl)cc1` (single isomer, unassigned; (-)) [(−)-enantiomer of halofenic acid, (−)-4-chloro-α-(3-trifluoromethylphenoxy)phenylacetic acid]: the “ability to inhibit cytochrome P450 2C9 compared to the (+)-enantiomer” value (fold less active than the (+)-enantiomer of halofenic acid) is given as “about twenty-fold less active”.
